Literature values in patent US20250051594A1, “INKJET INK” (KYOCERA DOCUMENT SOLUTIONS INC., priority 2023, published 2025).
Like-named read-outs stand apart in the source and are kept apart here.

Conditions: octanol/water partition coefficient of the organic solvent

SMILES	LogKow	LogKow (listed as propylene glycol)	LogKow (listed as ethylene glycolbutylethylether)
CCCCOCCOCC [EBEE, ethylene glycol butylethylether]	−1.88		lower than −1.80
OCCCO [1,3-propanediol]	−1.04		
COCCOCCOCCO [Triethylene glycol monomethylether]	−1.46		
OCCOCCO [Diethylene glycol]	−1.47		
OCCOCCOCCO [Triethylene glycol]	−1.75		
COCCOCCO [Diethylene glycol monomethylether]	−1.18		

Now from value to compound, other results behind:

LogKow	LogKow (listed as propylene glycol)	SMILES	LogKow (listed as ethylene glycolbutylethylether)
−1.20		CCCCOCCOCCOC [Diethylene glycolbutylmethylether]	
−1.24		COC(C)COC(C)COC(C)CO (centres unmarked) [Tripropylene glycol monomethylether]	
−1.53		CCCOC(C)COC(C)CO (centres unmarked) [Dipropylene glycol monopropylether]	
−0.92	higher than −1.00	CC(O)CO (centres unmarked) [PG, propylene glycol]	
−1.76		OCC(O)CO [Glycerin]	
−1.36		CCCCOCC(C)O (centres unmarked) [Propylene glycol monobutylether]	
